This passage reports AC50 results from PubChem BioAssay AID449745 (Broad Institute, 2010).

Inconclusive results are not listed. Activity calls are given as the source filed them. No rule for the calls is given here.

For orientation: AC50 means the concentration giving half of the maximal activity seen.

The target in the assay is Zinc finger protein mex-5 (Caenorhabditis elegans) (UniProt Q9XUB2). Kind of assay: MEX-5 RNA-binding inhibition confirmation – biochemical, C. elegans, fluorescence polarization, dose retest (AID 449745).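 Also: potency is for blocking Mex-5 binding to labeled TCR2 RNA like unlabeled competitor.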 The settings on record: Mex-5 / TCR-2 RNA binding. A general note: Polarisation of emitted light reports the rotation of a fluorescent probe.
Chain of Zinc finger protein mex-5 (Caenorhabditis elegans) (Q9XUB2 whole entry, looked up): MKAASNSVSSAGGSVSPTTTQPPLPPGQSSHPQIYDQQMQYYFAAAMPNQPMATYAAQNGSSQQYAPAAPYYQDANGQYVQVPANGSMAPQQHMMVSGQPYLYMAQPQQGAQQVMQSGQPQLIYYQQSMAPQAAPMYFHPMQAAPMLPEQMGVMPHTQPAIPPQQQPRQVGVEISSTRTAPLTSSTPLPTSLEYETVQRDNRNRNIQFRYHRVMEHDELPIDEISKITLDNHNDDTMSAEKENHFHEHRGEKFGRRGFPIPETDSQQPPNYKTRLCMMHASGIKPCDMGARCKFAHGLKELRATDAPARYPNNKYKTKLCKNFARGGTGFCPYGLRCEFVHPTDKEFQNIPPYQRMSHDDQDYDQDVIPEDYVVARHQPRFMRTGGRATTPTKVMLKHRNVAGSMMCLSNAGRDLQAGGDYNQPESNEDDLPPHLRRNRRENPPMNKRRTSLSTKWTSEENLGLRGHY

With `Cc1[nH][nH]c(=O)c1C(c1ccc(O)c([N+](=O)[O-])c1)c1c(C)[nH][nH]c1=O`, the AC50 is 8.52 µM. In the case of `CCCN1CCN(S(=O)(=O)c2cn(C)nc2C)CC1`, the AC50 was 39.9 µM. For `Cc1cccc(C2Nc3ccccc3C(=O)N2NC(=O)c2ccc([N+](=O)[O-])cc2)n1` (stereo not given), the AC50 is 8.47 µM. Turning to `Cc1cccc2cc3c(N)c(C(=O)N4CCCc5ccccc54)sc3nc12`, the AC50 was 19.9 µM.

On to `COC/C=C/C1=CC2=CC(=O)C(C)(OC(=O)c3cnc4ccccc4n3)C(=O)C2=CO1` (stereo not given), for which the AC50 was 17.4 µM. As to `O=C(N/N=C/c1c(O)n(Cc2ccccc2)c(=O)[nH]c1=O)c1ccccc1O`, the AC50 is 10.5 µM. Under `COCC(C)N1CCC(Oc2cccc(C(=O)NCCc3ccccc3)c2)CC1` (stereo not given) stands > 38 µM (inactive); under `O=c1c2ccccc2c(C=Nc2ccc(O)cc2)c(O)n1-c1nccs1`, > 38 µM (inactive); under `CN1C(=O)/C(=C/c2ccco2)SC1=Nc1cccc(C(=O)O)c1`, > 38 µM (inactive). In the case of `Cc1cc(C)cc(N2C(=O)NC(=O)/C(=C/c3cccn3-c3ccc(Cl)cc3)C2=O)c1`, the AC50 is > 38 µM (inactive). With `O=c1ccc2cc3c([nH]c4ccc(Br)cc43)oc-2c1O`, the AC50 is 3.77 µM. `Nc1ccc2nc3c(=O)n(CCc4ccccc4)c(=O)[nH]c3nc2c1`: the AC50 is 3.43 µM. As for `CCOc1ccc(/C=C/C(=O)c2c(O)c3ccccc3oc2=O)cc1`, the AC50 was > 38 µM (inactive). With `O=[N+]([O-])c1ccc(NCc2ccccc2)c2nonc12`, the AC50 was 0.744 µM.

On to `O=C(Nc1ccccc1F)C(=Cc1sc(N2CCOCC2)nc1-c1ccccc1)C(=O)Nc1ccccc1F`, for which the AC50 is 29.4 µM. On to `COC/C=C/C1=CC2=CC(=O)C(C)(O)C(=O)C2=CO1` (stereo not given), for which the AC50 is 13 µM.

For `Nc1ccc(N(CCO)CCO)cc1`, the AC50 was > 38 µM (inactive). The figure for `O=C(N/N=C/c1oc(O)c2ccccc12)c1ccccc1O` is > 38 µM (inactive); for `O=C1CS/C(=N\NC(=O)c2ccccc2)N1` it is 12 µM. For the compound `O=C(O)c1cc(-c2ccc(/C=c3\sc4nc5ccc(Br)cc5n4c3=O)o2)ccc1Cl`, the AC50 is 5.15 µM. The figure for `Cc1nnc(SCc2nc3sc4c(c3c(=O)[nH]2)CCCC4)n(N)c1=O` is > 38 µM (inactive).

Consider `CCc1cc(-c2n[nH]c(CCC(=O)O)c2-c2nc3ccccc3n2C)c(O)cc1O`, for which the concentration at half-maximal activity (AC50) is 12.1 µM. Under `CC1=NOC(=O)/C1=C/c1ccc2c(c1)OCO2` stands > 38 µM (inactive); under `COc1cc(OC)c(OC)cc1/C=C1/Cc2ccccc2C1=O`, 8.04 µM. Take `CCCCCCc1cc2cc(C(=O)NC)c(=N)oc2cc1O`: the AC50 is 6.09 µM. For `O=C(NNc1ncnc2c1cnn2-c1ccc(F)cc1)c1ccco1`, the AC50 was 15.9 µM.

As for `O=C1/C(=C\c2ccc(Br)cc2)SC(=S)N1NS(=O)(=O)c1ccccc1`, the AC50 is 17.7 µM.

For the compound `CC/C(=N/Nc1cccc(C)c1)c1cnnc(SC)n1`, the AC50 is > 38 µM (inactive). Under `Cc1nc2c3ccccc3nc(NNC(=O)CCC(=O)NC(C)C)n2n1` stands less than 0.3 µM; under `CCOC(=O)NC(=O)COC(=O)c1ccc(Sc2ncn[nH]2)c([N+](=O)[O-])c1`, 16.1 µM; under `Nc1nnnn1/N=C/c1cc(Cl)ccc1O`, 37.5 µM. On to `O=C(NNC(=O)c1ccccc1O)c1ccc(S(=O)(=O)Nc2ccccc2)cc1`, for which the AC50 is 11.4 µM. `CC(C)C[C@H](NC(=O)C1CC(=O)N(c2ccc3c(c2)OCO3)C1)C(=O)NC1CCCC1` (stereo not given in full): the AC50 is 29.2 µM. Under `NC(=O)c1c(NC(=O)C2COc3ccccc3O2)sc2c1CCN(Cc1ccccc1)C2` (stereo not given) stands > 38 µM (inactive); under `CC(=O)OC1=C(O)C(=O)c2ccccc2C1=O`, 10.3 µM; under `O=C(Nc1ccc2nc(-c3ccco3)c(-c3ccco3)nc2c1)N1CCN(c2ccccn2)CC1`, > 38 µM (inactive). The figure for `CCc1nnc(NS(=O)(=O)c2ccc(N=Cc3c(O)n(-c4ccc(Cl)cc4)c(=O)[nH]c3=O)cc2)s1` is > 38 µM (inactive); for `Cc1cc[n+](-c2[nH]c(=O)sc2/C=N/N=C(\[O-])c2ccncc2)cc1` it is 29.4 µM. As for `O=C1NC(=O)/C(=C\c2ccc(O)cc2O)S1`, the AC50 was 11.5 µM. As to `O=C(C1=NN(c2ccccc2)C2C(=O)N(c3ccccc3)C(=O)C12)c1ccccc1` (stereo not given), the AC50 is 32 µM. Consider `O=C1CCNc2ccc(-c3ccccc3)cc21`, for which the AC50 is 4.42 µM. For the compound `CN(C)c1ccc(N=Cc2nc(-c3ccccc3)oc2OC(=O)c2cccc(Br)c2)cc1`, the AC50 is > 38 µM (inactive). Under `O=c1[nH]n2c(=O)c3c([nH]c2c1N=Nc1ccccc1)CCC3` stands less than 0.3 µM; under `COC(=O)COc1ccc(C2Nc3c(Cl)ccc(C(=O)O)c3C3C=CCC32)cc1` (stereo not given), > 38 µM (inactive); under `O=C(O)COc1ccccc1C(Nc1cccnc1)c1cc(Cl)c2cccnc2c1O` (stereo not given), 10.5 µM. As to `O=C(Nc1ccc(S(=O)(=O)Nc2nccs2)cc1)c1ccc(N2C(=O)c3ccccc3C2=O)cc1`, the AC50 is > 38 µM (inactive). `CC1(C)CC2(CC(c3ccccc3F)c3ccc(O)c(O)c3O2)NC(=S)N1` (stereo not given): the AC50 was 0.638 µM.

Regarding `CCc1cc[n+](-c2nc3ccccc3nc2[N-]S(=O)(=O)c2ccc(Br)s2)cc1`, the AC50 was 4.86 µM. Take `COc1cc(C(=O)NC(=S)NNC(=O)c2cnccn2)cc(OC)c1OC`: the AC50 is less than 0.3 µM. Regarding `CC1=C(C#N)C(=O)N(C2CCS(=O)(=O)C2)C(=O)/C1=C\c1ccco1` (stereo not given), the half-maximal activity concentration (AC50) was 3.22 µM.

For `N#C/C(=C\c1cccs1)C(=O)Nc1ccccn1`, the AC50 was 32.6 µM. The figure for `CCOC(=O)C1CCN(c2nc3ccccc3nc2C(C#N)C(=O)OC(C)C)CC1` (stereo not given) is > 38 µM (inactive). For `CCc1ccc(N2C(=O)NC(=O)/C(=C\c3cccn3CCOc3ccc(C(C)C)cc3)C2=O)cc1`, the AC50 is > 38 µM (inactive).

As for `CN1CCN(c2nc(-c3ccccc3)nc(-c3ccccc3)c2C#N)CC1`, the AC50 is > 38 µM (inactive). Consider `CC1=C(C#N)c2nc(N)c(C#N)c(C)c2/C1=C\c1ccc(-c2ccccc2C(=O)O)o1`, for which the AC50 was 17.9 µM. Under `O=C(CSc1ncn[nH]1)Nc1c(Br)cc([N+](=O)[O-])cc1Br` stands 14 µM; under `CC(C)(C)OC(=O)NCCCC1=CC2=CC(=O)C(C)(O)C(=O)C2=CO1` (stereo not given), 19.3 µM; under `COc1ccc(/C=C/C(=O)c2c(O)n(CCC3=CCCCC3)c(=O)[nH]c2=O)cc1`, > 38 µM (inactive). As for `Cn1nc([N+](=O)[O-])c(C(C#N)c2nc3ccccc3n2C)c(Cl)c1=O` (stereo not given), the AC50 is 22.9 µM. The figure for `Cc1oc2c(cc(NS(=O)(=O)c3ccc(C(C)C)cc3)c3ccccc32)c1C(=O)O` is 5.37 µM.

Take `O=[As](O)(O)c1ccc(N=Nc2ccc(O)cc2)cc1`: the AC50 is 37.5 µM. For `O=c1[nH]c(=S)n(-c2ccc(Cl)cc2)c(O)c1C=Nc1ccc(N2CCOCC2)cc1`, the AC50 is 30 µM. Regarding `CCOc1ccc2nc(N3CCCN(C(=O)Nc4ccccc4C)CC3)c(C#N)cc2c1`, the AC50 is 22.8 µM. As for `COc1ccc(/C=C/C(=O)N/C(=C\c2ccco2)C(=O)NCCc2nc3ccccc3[nH]2)cc1`, the AC50 is > 38 µM (inactive). Under `COc1ccc(OC)c(N2C(=O)NC(=O)/C(=C/c3ccc([N+](=O)[O-])s3)C2=O)c1` stands 22 µM.
